Test results published in article PMC12282101, “Heat shock protein 90 chaperone activity is required for hepatitis A virus replication” (Journal of Virology, 2025).
“Also recorded” adds a separate entry of the source. Where two headings read alike, the source gives them in different places.

Experiments:
18f-NLuc reporter virus [1] = assay: microbe, parasite or virus in culture; type: cell-based, Hepatitis A virus; settings: Hepatovirus A, Huh-7.5.1, 72 h, read-out: Normalized HAV production
HAV [2] = assay: microbe, parasite or virus in culture; type: cell-based, Hepatitis A virus; settings: Hepatovirus A; 30 nM, Huh-7.5.1 cells; read-out: Inhibition of infectious virus released
HAV [3] = assay: microbe, parasite or virus in culture; type: cell-based, Hepatitis A virus; settings: Hepatovirus A, read-out: IC50, HAV replication by RT-qPCR
18f-NLuc reporter virus [4] = assay: microbe, parasite or virus in culture; type: cell-based, Hepatitis A virus; settings: Hepatovirus A, HEK-293T, read-out: IC50, HAV replication by NLuc
Experimental: Cells were lysed in 1× passive lysis buffer (Promega, #E1941) for 15 min at room temperature, then lysates were transferred to opaque white 96-well plates (Corning, #3912). NLuc activity was quantified using the NLuc GLOW Assay kit (Nanolight Technology, #325), and FLuc assays were carried out with the Luciferase Assay System (Promega, E1500). Luminescence was measured using a Biotek Synergy II multi-mode plate reader (BioTek Instruments).

18f-NLuc reporter virus [5] = assay: microbe, parasite or virus in culture; type: cell-based, Hepatitis A virus; settings: Hepatovirus A, FRhK-4, 48 h, read-out: IC50, HAV replication by NLuc
PV1-NLuc [6] = assay: microbe, parasite or virus in culture; type: cell-based, type 1 poliovirus; settings: Enterovirus C, Huh7.5, 16 h, read-out: IC50, PV1-NLuc replication
PV1-NLuc [7] = assay: microbe, parasite or virus in culture; type: cell-based, type 1 poliovirus; settings: Enterovirus C, FRhK-4, 16 h, read-out: IC50, PV1-NLuc replication
18f-NLuc reporter virus [8] = type: cell-based, Hepatitis A virus
HAV-FLuc = assay: microbe, parasite or virus in culture; type: cell-based, Hepatitis A virus
RV-B14-FLuc = type: cell-based, rhinovirus B14; settings: up to 1 µM, Huh-7.5 cells
PeV-A1-NLuc = type: cell-based, human parechovirus A1; settings: A549 cells
HAV IRES = type: cell-based, Hepatitis A virus; settings: 100 nM
3C^pro [9] = type: cell-based, Hepatitis A virus
3C^pro [10] = type: cell-based, Hepatitis A virus; remark: listed apart in the source
18f virus = type: cell-based, Hepatitis A virus; settings: cells infected 72 h, then treated 24 h
ACC1 = assay: Immunoblot of ACC1 in Huh-7.5 cells; type: cell-based, human; settings: 200 nM, 24 hours
HAV [11] = settings: FRhK4 fetal rhesus kidney cells; ref 16 Aragonès et al.; read-out: IC50, HAV replication; cited from earlier work
poliovirus = settings: HeLa S3 cells; read-out: IC50, poliovirus replication; cited from earlier work
in vitro [12] = settings: human, CC50, Huh-7.5 cells, cellular ATP assay
in vitro [13] = settings: rhesus monkey, CC50, FRhK4 cells
HM175/18f virus = assay: microbe, parasite or virus in culture; settings: Hepatovirus A
18f-NLuc reporter virus [14] = assay: microbe, parasite or virus in culture; settings: Hepatovirus A, Huh7.5, 48 h, read-out: IC50, HAV replication by NLuc
Huh-7.5.1 cells = assay: Cell viability in the chemical screen (Cell TiterGlo); settings: 10 µM compound, 72 h

## COC1=C2C[C@@H](C)C[C@H](OC)[C@H](O)[C@@H](C)/C=C(\C)[C@H](OC(N)=O)[C@@H](OC)/C=C\C=C(/C)C(=O)NC(=CC1=O)C2=O [Geldanamycin]
18f-NLuc reporter virus [1]
  activity at 10 µM: 0.0718%
HAV [2]
  inhibition at 0.03 µM: > 50%
HAV [3]
  IC50: 4.3 nM
18f-NLuc reporter virus [4]
  IC50: 4.7 nM
18f-NLuc reporter virus [5]
  IC50: 804 nM
PV1-NLuc [6]
  IC50: 183 nM
PV1-NLuc [7]
  IC50: > 10000 nM
18f-NLuc reporter virus [8]
  NLuc expression at 48 hours post-infection: neither case did either HSP90 inhibitor reduce NLuc expression
HAV-FLuc
  Replication of subgenomic HAV RNA replicon (in words): potently inhibited
HAV-FLuc; Hepatovirus A, Huh7.5, 24 h, read-out: IC50, HAV-FLuc replicon
  IC50: 29.1 nM
RV-B14-FLuc
  Luciferase expression from subgenomic rhinovirus B14 replicon (in words): does not inhibit
RV-B14-FLuc; listed as geldanamycin
  Luciferase expression from subgenomic rhinovirus B14 replicon (in words): fails to inhibit
PeV-A1-NLuc
  Replication of subgenomic human parechovirus A1 replicon (in words): minimally inhibits; also recorded: resistant
HAV IRES
  GFP synthesis from circRNA HAV IRES reporter: had no effect
HAV IRES; listed as geldanamycin
  GFP synthesis from circRNA HAV IRES reporter: neither geldanamycin nor 17-AAG inhibited
3C^pro [9]; 0.1 µM
  Inhibition of 3ABCD processing: no inhibition
3C^pro [9]; 1 µM
  Amount of 3ABC product from HA-3ABCD: modestly reduced
3C^pro [10]
  Cleavage of GFP-MAVS by 3ABC: no impact
18f virus
  VP1 and 3ABC proteins in infected cell lysates: concentration-related decreases
ACC1
  Abundance of ACC1: did not reduce
HAV [11]
  IC50: 5370 nM
poliovirus
  IC50: 110 nM
In vitro [12]
  CC50: 5100 nM
In vitro [13]
  CC50: > 10000 nM
In vitro [13]; cellular ATP assay
  CC50: 59000 nM
HM175/18f virus; Huh7.5, in Homo sapiens, read-out: 50% inhibitory concentration, HAV replication
  IC50: 8.7 to 11.8 nM
HM175/18f virus; Huh-7.5.1, read-out: IC50, HAV replication by RT-qPCR
  IC50: 11.8 nM
18f-NLuc reporter virus [14]
  IC50: 8.7 nM
Huh-7.5.1 cells
  Viability Percent DMSO: 61 Percent DMSO
